± gives the expanded uncertainty stated by the source.
Assay: wn = mass fraction of the nth substance listed
Conditions: 101 kPa, Liquid, Vibrating tube method, w1 = 0.365

`OCCO` [1,2-ethanediol] + O showed a mass density (283.15 K) of 1059.35 ± 0.11 kg/m3, a mass density (293.15 K) of 1054.78 ± 0.11 kg/m3 and a mass density (303.15 K) of 1049.78 ± 0.11 kg/m3. The mass density (313.15 K) was 1044.38 ± 0.1 kg/m3, the mass density (323.15 K) was 1038.57 ± 0.1 kg/m3 and the mass density (333.15 K) was 1032.23 ± 0.1 kg/m3.

— the NIST ThermoML archive (doi:10.1016/j.fluid.2018.11.035)
